This note sets out measurements from ChEMBL document CHEMBL4325928, “Structure-Property Basis for Solving Transporter-Mediated Efflux and Pan-Genotypic Inhibition in HCV NS5B Inhibitors” (ACS Med Chem Lett, 2018).

One may read the efflux ratio as a quotient of directional permeabilities that is used to spot active efflux. One may read the half-life as the time in which the quantity being followed falls by half. Low readings indicate rapid decline, high ones slow decline. Usually bioavailability stands for the share of a dose that reaches the circulation, judged against a reference dose that is usually intravenous. Read a high bioavailability as good availability. Usually clearance stands for the volume of plasma or blood freed of the substance per unit of time. High values mean efficient removal, low ones inefficient removal. By Cmax is commonly meant the peak of the concentration-time curve. Usually Tmax stands for the time at which the peak concentration occurs. As usually defined, the AUC is concentration integrated over time. Lower therefore signals less exposure.

The nature of data set [1]: Permeability across basolateral side to apical side in human Caco2 cells expressing p-gp at 3 uM incubated for 2 hrs by LC-MS/MS analysis. It counts as ADME, cell-based. To be noted: Caco-2, read-out: permeability. (Caco-2 cells form a polarised layer with tight junctions and transporters.)
Data set [2] is described as follows: Efflux ratio of permeability from basolateral side to apical side over apical side to basolateral side in human Caco2 cells expressing p-gp at 3 uM incubated for 2 hrs by LC-MS/MS analysis. The class given is ADME, cell-based. To be noted: Caco-2.
The nature of data set [3]: Permeability across apical side to basolateral side in human Caco2 cells expressing p-gp at 3 uM incubated for 2 hrs by LC-MS/MS analysis. To be noted: Caco-2, read-out: permeability. The class given is ADME, cell-based.
Data set [4] can be described thus: Permeability of the compound at pH 7.4 by PAMPA. It counts as ADME. To be noted: read-out: permeability.
Data set [5] can be described thus: Half life in rat liver microsomes. The class given is ADME, Microsome.
A short description of data set [6]: Half life in human liver microsomes. The class given is ADME, Microsome.
Data set [7] is described as follows: Oral bioavailability in cannulated Sprague-Dawley rat at 6 mg/kg administered via gastric gavage by LC-MS/MS analysis. The note with it: in vivo. The class given is ADME, organism-based.
Data set [8] in a line: Clearance in cannulated Sprague-Dawley rat at 2 mg/kg, iv administered as 10 mins infusion by LC-MS/MS analysis. The note with it: in vivo. It counts as ADME, organism-based.
A short description of data set [9]: Cmax in cannulated Sprague-Dawley rat at 6 mg/kg, po administered via gastric gavage by LC-MS/MS analysis. The class given is ADME, organism-based. Also on record: dose 6 mg/kg, route oral. The note with it: in vivo.
The nature of data set [10]: Drug level in cannulated Sprague-Dawley rat liver at 6 mg/kg, po administered via gastric gavage measured after 5 hrs by LC-MS/MS analysis. The class given is ADME, organism-based. To be noted: read-out: Drug uptake.
Data set [11] can be described thus: Half life in cannulated Sprague-Dawley rat at 2 mg/kg, iv administered as 10 mins infusion by LC-MS/MS analysis. The note with it: in vivo. It counts as ADME, organism-based.
Data set [12] can be described thus: Tmax in cannulated Sprague-Dawley rat at 6 mg/kg, po administered via gastric gavage by LC-MS/MS analysis. The class given is ADME, organism-based. The note with it: in vivo.
A short description of data set [13]: Volume of distribution at steady state in cannulated Sprague-Dawley rat at 2 mg/kg, iv administered as 10 mins infusion by LC-MS/MS analysis. The note with it: in vivo, read-out: Vdss. It counts as ADME, organism-based.
Data set [14] is described as follows: AUC in cannulated Sprague-Dawley rat at 6 mg/kg, po administered via gastric gavage by LC-MS/MS analysis. It counts as ADME, organism-based. To be noted: in vivo.
Data set [15] in a line: Stability in human liver microsomes assessed as parent compound remaining. It counts as ADME, Microsome. A general note: Microsomes from liver hold many membrane-bound enzymes, among them those of drug oxidation.
Data set [16] is described as follows: Stability in rat liver microsomes assessed as parent compound remaining. The class given is ADME, Microsome.
The nature of data set [17]: Drug level in cannulated Sprague-Dawley rat liver at 6 mg/kg, po administered via gastric gavage measured after 24 hrs by LC-MS/MS analysis. To be noted: read-out: Drug uptake. It counts as ADME, organism-based.
A short description of data set [18]: Drug level in cannulated Sprague-Dawley rat plasma at 6 mg/kg, po administered via gastric gavage measured after 5 hrs by LC-MS/MS analysis. It counts as ADME, organism-based.

Take `CCN(C(=O)OC)c1cc2oc(-c3ccc(F)cc3)c(C(=O)NC)c2cc1-c1ccc(OC)c(C(=O)NC2(c3ncccn3)CC2)c1`: the Papp B→A at 2 h, 3 µM in [1] worked out at 23.2 ×10⁻⁶ cm/s. Besides, the efflux ratio at 2 h, 3 µM in [2] is 9.6. Further, the Papp A→B at 2 h, 3 µM in data set [3] is 2.4 ×10⁻⁶ cm/s. Moreover, the Papp in [4] came out at 66 ×10⁻⁶ cm/s.

On to `CCN(c1cc2oc(-c3ccc(F)cc3)c(C(=O)NC)c2cc1-c1ccc(OC)c(C(=O)NC2(c3ncccn3)CC2)c1)S(C)(=O)=O`, for which the half-life in data set [5] was above 2 h; in data set [6], 1.52 h; in [11] it was 1.6 h. Moreover, the bioavailability in data set [7] is 20%. In data set [8], this compound gave a clearance of 60 mL/min/kg. Moreover, the highest level in data set [9] (Cmax) was 223 nM. Moreover, the Papp B→A at 2 h, 3 µM in [1] worked out at 18.5 ×10⁻⁶ cm/s. Moreover, in data set [10], the concentration at 5 h was found to be 1180 nM. The efflux ratio at 2 h, 3 µM in data set [2] is above 12.4. For the same compound, the Papp A→B at 2 h, 3 µM in data set [3] is below 1.5 ×10⁻⁶ cm/s. The Papp in [4] was found to be 48.7 ×10⁻⁶ cm/s. Further, the Tmax in [12] is 1.9 h. Moreover, the Vd in data set [13] is 14 L/kg. Further, the AUC in [14] was 0.74 µM·h.

As to `CNC(=O)c1c(-c2ccc(F)cc2)oc2cc(N(CCO)S(C)(=O)=O)c(-c3cccc(C(=O)NC4(c5ccccn5)CC4)c3)cc12`, the Stability stood at 99% in data set [15] and 8.7% in [16].

As to `CCN(c1cc2oc(-c3ccc(F)cc3)c(C(=O)NC)c2cc1-c1cc(C)c(OC)c(C(=O)NC2(c3ncccn3)CC2)c1)S(C)(=O)=O`, the Papp B→A at 2 h, 3 µM in [1] is 32.2 ×10⁻⁶ cm/s. The efflux ratio at 2 h, 3 µM in [2] was determined as 9.8. Moreover, the Papp A→B at 2 h, 3 µM in data set [3] came to 3.3 ×10⁻⁶ cm/s. The Papp in [4] amounted to 40.9 ×10⁻⁶ cm/s.

Consider `CCN(c1cc2oc(-c3ccc(F)cc3)c(C(=O)NC)c2cc1-c1cc(F)c(F)c(C(=O)NC2(c3ncccn3)CC2)c1)S(C)(=O)=O`, for which, in data set [1], the Papp B→A at 2 h, 3 µM was found to be 62.3 ×10⁻⁶ cm/s. Further, the efflux ratio at 2 h, 3 µM in data set [2] is 7.8. Further, in [3], the Papp A→B at 2 h, 3 µM turned out to be 7.9 ×10⁻⁶ cm/s. In data set [4], the Papp is 73.1 ×10⁻⁶ cm/s.

As to `CCNc1cc2oc(-c3ccc(F)cc3)c(C(=O)NC)c2cc1-c1ccc(OC)c(C(=O)NC2(c3ncccn3)CC2)c1`, the half-life in data set [5] is 0.65 h; in [6], 0.6 h; in data set [11], 4.7 h. The compound also registered a bioavailability in data set [7] of 57%. Besides, the clearance in data set [8] is 11 mL/min/kg. In addition, the concentration in data set [9] peaked (Cmax) at 776 nM. For the same compound, the Papp B→A at 2 h, 3 µM in [1] came to 17.6 ×10⁻⁶ cm/s. In addition, the concentration at 5 h in data set [10] came out at 5260 nM. The efflux ratio at 2 h, 3 µM in data set [2] worked out at 0.8. Also, the Papp A→B at 2 h, 3 µM in [3] stood at 23.2 ×10⁻⁶ cm/s. In data set [4], the Papp was determined as 72 ×10⁻⁶ cm/s. The time to peak (Tmax) in data set [12] is 5.3 h. For the same compound, the concentration at 24 h in data set [17] is 391 nM. Besides, in data set [13], the Vd was found to be 4 L/kg. For the same compound, the AUC in [14] came to 7.8 µM·h.

As to `CNC(=O)c1c(-c2ccc(F)cc2)oc2cc(N(CCO)S(C)(=O)=O)c(-c3cccc(C(=O)NC4(c5ccccc5)CC4)c3)cc12`, the Stability was found to be 63% in data set [15] and 0.6% in data set [16].

Turning to `CNC(=O)c1c(-c2ccc(F)cc2)oc2ccc(-c3cccc(C(=O)NC4(c5ccccn5)CC4)c3)cc12`, the Stability in data set [15] was found to be 91%; in data set [16], 54%.

In the case of `CCN(C(C)=O)c1cc2oc(-c3ccc(F)cc3)c(C(=O)NC)c2cc1-c1ccc(OC)c(C(=O)NC2(c3ncccn3)CC2)c1`, the Papp B→A at 2 h, 3 µM in data set [1] amounted to 30.8 ×10⁻⁶ cm/s. In addition, the efflux ratio at 2 h, 3 µM in [2] was above 20.5. Besides, in data set [3], the Papp A→B at 2 h, 3 µM was below 1.5 ×10⁻⁶ cm/s. In addition, the Papp in data set [4] worked out at 46.6 ×10⁻⁶ cm/s.

Consider `CCN(c1cc2oc(-c3ccc(F)cc3)c(C(=O)NC)c2cc1-c1cc(Cl)c(OC)c(C(=O)NC2(c3ncccn3)CC2)c1)S(C)(=O)=O`, for which the half-life was 0.433 h in [5] and 0.232 h in data set [6]. Moreover, the values for the concentration at 5 h in data set [18] and in data set [10] were 277 nM and 7180 nM, respectively. Also, the Papp B→A at 2 h, 3 µM in [1] turned out to be 11.4 ×10⁻⁶ cm/s. In addition, the efflux ratio at 2 h, 3 µM in [2] is 2.2. Besides, in data set [3], the Papp A→B at 2 h, 3 µM worked out at 5.2 ×10⁻⁶ cm/s. Also, the Papp in [4] turned out to be 82.1 ×10⁻⁶ cm/s.

Turning to `CCN(c1cc2oc(-c3ccc(F)cc3)c(C(=O)NC)c2cc1-c1cccc(C(=O)NC2(c3ncccn3)CC2)c1)S(C)(=O)=O`, the values for the half-life in [5] and in data set [6] were 0.817 h and above 2 h, respectively. Moreover, the Papp B→A at 2 h, 3 µM in data set [1] turned out to be 13 ×10⁻⁶ cm/s. The Stability came to 100% in data set [15] and 91% in [16]. The efflux ratio at 2 h, 3 µM in data set [2] was above 8.6. Further, the Papp A→B at 2 h, 3 µM in [3] was below 1.5 ×10⁻⁶ cm/s.

Turning to `CCN(C(=O)C(F)(F)F)c1cc2oc(-c3ccc(F)cc3)c(C(=O)NC)c2cc1-c1ccc(OC)c(C(=O)NC2(c3ncccn3)CC2)c1`, in [1], the Papp B→A at 2 h, 3 µM was determined as 11.5 ×10⁻⁶ cm/s. In addition, in [2], the efflux ratio at 2 h, 3 µM was 2.7. For the same compound, the Papp A→B at 2 h, 3 µM in [3] is 4.2 ×10⁻⁶ cm/s. The Papp in data set [4] was 83.5 ×10⁻⁶ cm/s.

On to `CCN(C(=O)N(C)C)c1cc2oc(-c3ccc(F)cc3)c(C(=O)NC)c2cc1-c1ccc(OC)c(C(=O)NC2(c3ncccn3)CC2)c1`, for which, in [1], the Papp B→A at 2 h, 3 µM turned out to be 47.9 ×10⁻⁶ cm/s. The efflux ratio at 2 h, 3 µM in [2] was 24.1. Besides, in [3], the Papp A→B at 2 h, 3 µM is 2 ×10⁻⁶ cm/s. The Papp in [4] came out at 57.5 ×10⁻⁶ cm/s.

For `CCN(c1cc2oc(-c3ccc(F)cc3)c(C(=O)NC)c2cc1-c1cc(F)c(OC)c(C(=O)NC2(c3ncccn3)CC2)c1)S(C)(=O)=O`, the Papp B→A at 2 h, 3 µM in data set [1] came out at 40.6 ×10⁻⁶ cm/s. The efflux ratio at 2 h, 3 µM in data set [2] is 13.8. The Papp A→B at 2 h, 3 µM in data set [3] turned out to be 2.9 ×10⁻⁶ cm/s. In addition, in [4], the Papp stood at 65.9 ×10⁻⁶ cm/s.
